{"source": "patent US12134587B2", "about": "“Reaction products and methods for making and using the same” (KOCH AGRONOMIC SERVICES, LLC, priority 2010, dated 2024)", "tested_on": "nitrification of ammonium to nitrate in Greenville loamy soil", "test": "Soil incubation test of nitrogen transformations (ammonium-N and nitrate-N)", "procedure": "Three reaction products (Ex. 1-3) mixed with a urea solution to produce a liquid fertilizer solution were prepared and incubation tests were conducted. A comparative example of a urea only solution, i.e., a urea solution without a reaction product (C1), and a comparative example of a urea solution mixed with dicyandiamide (DCD) (C2) were also prepared and evaluated. For comparative example C2, the urea solution mixed with DCD was not reacted. In other words, the DCD was mixed with the urea solution to provide the fertilizer. A Control was also prepared that consisted of soil, i.e., no nitrogen source nor reaction product was added.\nIncubation tests were performed using each Example 1-3 to evaluate the nitrogen transformations for each sample. The effect of each reaction product (Ex. 1-3) on the nitrogen concentration in the soil as both ammonium-nitrogen and nitrate-nitrogen were evaluated at three different concentrations of the reaction products. More particularly, the concentration of DCD for a first set of samples was 0.75 wt. % (Table 1), a second set of samples was 1.5 wt. % (Table 2), and a third set of samples was 3 wt. % (Table 3), where the weight percents of the DCD concentration are based on the total weight of nitrogen in the urea solution.\nThe soil used in the incubation tests was Greenville loamy soil (clay-loam, siliceous, thermic Plinthic Kandiudults). […] The phosphorous and sulfur concentrations were determined according to the Bray-1 test. The zinc concentration was determined according to the DTPA (diethylenetriaminepentaacetic acid) soil test.\nAs used herein, the term “field capacity,” refers to the drained upper limit or moisture content below which there is no free drainage flow. During the one week incubation period the moisture was reduced to about 80%. For each test 50 g of soil was placed into a cup and each cup was covered with a lid having four holes to allow for aeration and to minimize water loss.\nStock solutions containing each example were prepared by adding 2.15 g of urea and the corresponding amount of DCD (C2) or the reaction product (Ex. 1-3) to a 500 mL beaker to provide samples having 0.75 wt. % (Table 1), 1.5 wt. % (Table 2), and 3 wt. % (Table 3) DCD based on the total nitrogen concentration in the urea solution. After adding the urea (C1), urea plus DCD (C2), and urea plus the reaction products (Ex. 1-3), to the beakers, the contents of each beaker were diluted to 500 mL with distilled water to provide a stock solution. For the examples shown in Tables 1-3 below, 5 mL of the corresponding stock solution were introduced via a pipette onto each 50 g soil sample and the cover was placed thereon. The amount of nitrogen contained in each example (Ex. 1-3, C1, and C2) was 10 mg and the nitrogen was in the form of urea. The soil had at least an 80% field moisture capacity for each sample and if needed additional distilled water was used in order to achieve the 80% field moisture capacity.\nSoil extractions were made at 1 week intervals to determine the amount of ammonium-nitrogen and nitrate-nitrogen in each example. A total of 10 extractions were performed, namely at time=0 and after the 1st week, 2nd week, 3rd week, 4th week, 5th week, 6th week, 7th week, 8th week, and the […]. Extracting the nitrogen from each sample was done by adding 100 mL of a 2M potassium chloride (KCl) solution to each soil sample to be tested. The amount of nitrogen in the form of ammonium (NH4^+) and nitrate (NO3^−) were then determined.\nThe amount of ammonium was determined using the well-known Berthelot reaction in which ammonia is chlorinated to monochloroamine, which then reacts with salicylate to form 5-aminosalicylate. After oxidation and oxidative coupling, a green color complex was formed which was measured at 660 nm using a spectrophotometer.\nThe determination of nitrate was determined based on the reduction of nitrate (NO3) to […] (NO2) by hydrazinium sulfate or cadmium metal. […]", "key": {"[1]": {"conditions": "0.75 wt. % DCD based on nitrogen in urea solution, Wk. 0"}, "[2]": {"conditions": "1.5 wt. % DCD Based on the Weight of Nitrogen in the Fertilizer, Wk. 0"}, "[3]": {"conditions": "3 wt. % DCD Based on the Weight of Nitrogen in the Fertilizer, Wk. 0"}}, "data": [{"smiles": "NC(N)=O", "note": "[C1, urea]", "values": [{"measurement": "Ammonium (NH4^+)", "setting": "[1]", "value": 0.39, "unit": "mg N"}, {"measurement": "Nitrate (NO3^−)", "setting": "[1]", "value": 1.27, "unit": "mg N"}, {"measurement": "Ammonium (NH4^+)", "setting": "0.75 wt. % DCD, Wk. 1", "value": 6.81, "unit": "mg N"}, {"measurement": "Nitrate (NO3^−)", "setting": "0.75 wt. % DCD, Wk. 1", "value": 3.61, "unit": "mg N"}, {"measurement": "Ammonium (NH4^+)", "setting": "0.75 wt. % DCD, Wk. 2", "value": 4.21, "unit": "mg N"}, {"measurement": "Nitrate (NO3^−)", "setting": "0.75 wt. % DCD, Wk. 2", "value": 6.37, "unit": "mg N"}, {"measurement": "Ammonium (NH4^+)", "setting": "0.75 wt. % DCD, Wk. 3", "value": 2.14, "unit": "mg N"}, {"measurement": "Nitrate (NO3^−)", "setting": "0.75 wt. % DCD, Wk. 3", "value": 8.38, "unit": "mg N"}, {"measurement": "Ammonium (NH4^+)", "setting": "0.75 wt. % DCD, Wk. 4", "value": 0.18, "unit": "mg N"}, {"measurement": "Nitrate (NO3^−)", "setting": "0.75 wt. % DCD, Wk. 4", "value": 10.45, "unit": "mg N"}, {"measurement": "Ammonium (NH4^+)", "setting": "0.75 wt. % DCD, Wk. 5", "value": 0.08, "unit": "mg N"}, {"measurement": "Nitrate (NO3^−)", "setting": "0.75 wt. % DCD, Wk. 5", "value": 10.69, "unit": "mg N"}, {"measurement": "Ammonium (NH4^+)", "setting": "0.75 wt. % DCD, Wk. 6", "value": 0.08, "unit": "mg N"}, {"measurement": "Nitrate (NO3^−)", "setting": "0.75 wt. % DCD, Wk. 6", "value": 10.66, "unit": "mg N"}, {"measurement": "Ammonium (NH4^+)", "setting": "0.75 wt. % DCD, Wk. 7", "value": 0.09, "unit": "mg N"}, {"measurement": "Nitrate (NO3^−)", "setting": "0.75 wt. % DCD, Wk. 7", "value": 10.85, "unit": "mg N"}, {"measurement": "Ammonium (NH4^+)", "setting": "0.75 wt. % DCD, Wk. 8", "value": 0.10, "unit": "mg N"}, {"measurement": "Nitrate (NO3^−)", "setting": "0.75 wt. % DCD, Wk. 8", "value": 10.97, "unit": "mg N"}, {"measurement": "Ammonium (NH4^+)", "setting": "0.75 wt. % DCD, Wk. 10", "value": 0.04, "unit": "mg N"}, {"measurement": "Nitrate (NO3^−)", "setting": "0.75 wt. % DCD, Wk. 10", "value": 10.98, "unit": "mg N"}, {"measurement": "Ammonium (NH4^+)", "setting": "[2]", "value": 0.39, "unit": "mg N"}, {"measurement": "Nitrate (NO3^−)", "setting": "[2]", "value": 1.27, "unit": "mg N"}, {"measurement": "Ammonium (NH4^+)", "setting": "1.5 wt. % DCD, Wk. 1", "value": 6.81, "unit": "mg N"}, {"measurement": "Nitrate (NO3^−)", "setting": "1.5 wt. % DCD, Wk. 1", "value": 3.61, "unit": "mg N"}, {"measurement": "Ammonium (NH4^+)", "setting": "1.5 wt. % DCD, Wk. 2", "value": 4.21, "unit": "mg N"}, {"measurement": "Nitrate (NO3^−)", "setting": "1.5 wt. % DCD, Wk. 2", "value": 6.37, "unit": "mg N"}, {"measurement": "Ammonium (NH4^+)", "setting": "1.5 wt. % DCD, Wk. 3", "value": 2.14, "unit": "mg N"}, {"measurement": "Nitrate (NO3^−)", "setting": "1.5 wt. % DCD, Wk. 3", "value": 8.38, "unit": "mg N"}, {"measurement": "Ammonium (NH4^+)", "setting": "1.5 wt. % DCD, Wk. 4", "value": 0.18, "unit": "mg N"}, {"measurement": "Nitrate (NO3^−)", "setting": "1.5 wt. % DCD, Wk. 4", "value": 10.45, "unit": "mg N"}, {"measurement": "Ammonium (NH4^+)", "setting": "1.5 wt. % DCD, Wk. 5", "value": 0.08, "unit": "mg N"}, {"measurement": "Nitrate (NO3^−)", "setting": "1.5 wt. % DCD, Wk. 5", "value": 10.69, "unit": "mg N"}, {"measurement": "Ammonium (NH4^+)", "setting": "1.5 wt. % DCD, Wk. 6", "value": 0.08, "unit": "mg N"}, {"measurement": "Nitrate (NO3^−)", "setting": "1.5 wt. % DCD, Wk. 6", "value": 10.66, "unit": "mg N"}, {"measurement": "Ammonium (NH4^+)", "setting": "1.5 wt. % DCD, Wk. 7", "value": 0.09, "unit": "mg N"}, {"measurement": "Nitrate (NO3^−)", "setting": "1.5 wt. % DCD, Wk. 7", "value": 10.85, "unit": "mg N"}, {"measurement": "Ammonium (NH4^+)", "setting": "1.5 wt. % DCD, Wk. 8", "value": 0.10, "unit": "mg N"}, {"measurement": "Nitrate (NO3^−)", "setting": "1.5 wt. % DCD, Wk. 8", "value": 10.97, "unit": "mg N"}, {"measurement": "Ammonium (NH4^+)", "setting": "1.5 wt. % DCD, Wk. 10", "value": 0.04, "unit": "mg N"}, {"measurement": "Nitrate (NO3^−)", "setting": "1.5 wt. % DCD, Wk. 10", "value": 10.98, "unit": "mg N"}, {"measurement": "Ammonium (NH4^+)", "setting": "[3]", "value": 0.39, "unit": "mg N"}, {"measurement": "Nitrate (NO3^−)", "setting": "[3]", "value": 1.27, "unit": "mg N"}, {"measurement": "Ammonium (NH4^+)", "setting": "3 wt. % DCD, Wk. 1", "value": 6.81, "unit": "mg N"}, {"measurement": "Nitrate (NO3^−)", "setting": "3 wt. % DCD, Wk. 1", "value": 3.61, "unit": "mg N"}, {"measurement": "Ammonium (NH4^+)", "setting": "3 wt. % DCD, Wk. 2", "value": 4.21, "unit": "mg N"}, {"measurement": "Nitrate (NO3^−)", "setting": "3 wt. % DCD, Wk. 2", "value": 6.37, "unit": "mg N"}, {"measurement": "Ammonium (NH4^+)", "setting": "3 wt. % DCD, Wk. 3", "value": 2.14, "unit": "mg N"}, {"measurement": "Nitrate (NO3^−)", "setting": "3 wt. % DCD, Wk. 3", "value": 8.38, "unit": "mg N"}, {"measurement": "Ammonium (NH4^+)", "setting": "3 wt. % DCD, Wk. 4", "value": 0.18, "unit": "mg N"}, {"measurement": "Nitrate (NO3^−)", "setting": "3 wt. % DCD, Wk. 4", "value": 10.45, "unit": "mg N"}, {"measurement": "Ammonium (NH4^+)", "setting": "3 wt. % DCD, Wk. 5", "value": 0.08, "unit": "mg N"}, {"measurement": "Nitrate (NO3^−)", "setting": "3 wt. % DCD, Wk. 5", "value": 10.69, "unit": "mg N"}, {"measurement": "Ammonium (NH4^+)", "setting": "3 wt. % DCD, Wk. 6", "value": 0.08, "unit": "mg N"}, {"measurement": "Nitrate (NO3^−)", "setting": "3 wt. % DCD, Wk. 6", "value": 10.66, "unit": "mg N"}, {"measurement": "Ammonium (NH4^+)", "setting": "3 wt. % DCD, Wk. 7", "value": 0.09, "unit": "mg N"}, {"measurement": "Nitrate (NO3^−)", "setting": "3 wt. % DCD, Wk. 7", "value": 10.85, "unit": "mg N"}, {"measurement": "Ammonium (NH4^+)", "setting": "3 wt. % DCD, Wk. 8", "value": 0.10, "unit": "mg N"}, {"measurement": "Nitrate (NO3^−)", "setting": "3 wt. % DCD, Wk. 8", "value": 10.97, "unit": "mg N"}, {"measurement": "Ammonium (NH4^+)", "setting": "3 wt. % DCD, Wk. 10", "value": 0.04, "unit": "mg N"}, {"measurement": "Nitrate (NO3^−)", "setting": "3 wt. % DCD, Wk. 10", "value": 10.98, "unit": "mg N"}]}]}
